Data from the NIST ThermoML archive (doi:10.1021/je050389b).

What was measured:
[1] = Liquid
[2] = xn = mol fraction of the nth substance listed; conditions: Liquid, x2 = 0

CC(=O)OCCC(C)C [3-methylbutyl ethanoate]
[1], 100.5 kPa
Conditions	mass density [kg/m3]	viscosity [mPa·s]
288.15 K	877.72	0.94
298.15 K	867.91	0.804
308.15 K	858.07	0.704
318.15 K	848.17	0.627

CCO [ethanol] + CCOC(=O)Cc1ccccc1
[2]
Conditions	mass density, 288.15 K [kg/m3]	mass density, 298.15 K [kg/m3]	mass density, 308.15 K [kg/m3]	mass density, 318.15 K [kg/m3]	viscosity, 288.15 K [mPa·s]	viscosity, 298.15 K [mPa·s]	viscosity, 308.15 K [mPa·s]	viscosity, 318.15 K [mPa·s]
100.5 kPa	–	–	–	–	1.337	1.105	0.921	0.771
101 kPa	793.6	785	776.31	767.44	–	–	–	–

CCO [ethanol] + CC(=O)OCCC(C)C
[2], 100.5 kPa
Conditions	mass density [kg/m3]	viscosity [mPa·s]
288.15 K	793.6	1.337
298.15 K	785	1.105
308.15 K	776.31	0.921
318.15 K	767.44	0.771

CCO [ethanol] + CCOC(=O)c1ccccc1
[2]
Conditions	mass density, 288.15 K [kg/m3]	mass density, 298.15 K [kg/m3]	mass density, 308.15 K [kg/m3]	mass density, 318.15 K [kg/m3]	viscosity, 288.15 K [mPa·s]	viscosity, 298.15 K [mPa·s]	viscosity, 308.15 K [mPa·s]	viscosity, 318.15 K [mPa·s]
100.5 kPa	–	–	–	–	1.337	1.105	0.921	0.771
101 kPa	793.6	785	776.31	767.44	–	–	–	–

CCO [ethanol] + CCCCCCCC(=O)OCC
[2]
Conditions	mass density, 288.15 K [kg/m3]	mass density, 298.15 K [kg/m3]	mass density, 308.15 K [kg/m3]	mass density, 318.15 K [kg/m3]	viscosity, 288.15 K [mPa·s]	viscosity, 298.15 K [mPa·s]	viscosity, 308.15 K [mPa·s]	viscosity, 318.15 K [mPa·s]
100.5 kPa	–	–	–	–	1.337	1.105	0.921	0.771
101 kPa	793.6	785	776.31	767.44	–	–	–	–

CCCCCC(=O)OCC [ethyl hexanoate]
[1]
Conditions	mass density, 288.15 K [kg/m3]	mass density, 298.15 K [kg/m3]	mass density, 308.15 K [kg/m3]	mass density, 318.15 K [kg/m3]	viscosity, 288.15 K [mPa·s]	viscosity, 298.15 K [mPa·s]	viscosity, 308.15 K [mPa·s]	viscosity, 318.15 K [mPa·s]
100.5 kPa	–	–	–	–	1.102	0.94	0.814	0.711
101 kPa	875.64	866.29	856.91	847.5	–	–	–	–

CCCC(=O)OCCC(C)C [3-methylbutyl butanoate]
[1]
Conditions	mass density, 288.15 K [kg/m3]	mass density, 298.15 K [kg/m3]	mass density, 308.15 K [kg/m3]	mass density, 318.15 K [kg/m3]	viscosity, 288.15 K [mPa·s]	viscosity, 298.15 K [mPa·s]	viscosity, 308.15 K [mPa·s]	viscosity, 318.15 K [mPa·s]
100.5 kPa	–	–	–	–	1.317	1.111	0.952	0.827
101 kPa	867.72	858.69	849.62	840.55	–	–	–	–

CCO [ethanol] + CCCCCC(=O)OCC
[2]
Conditions	mass density, 288.15 K [kg/m3]	mass density, 298.15 K [kg/m3]	mass density, 308.15 K [kg/m3]	mass density, 318.15 K [kg/m3]	viscosity, 288.15 K [mPa·s]	viscosity, 298.15 K [mPa·s]	viscosity, 308.15 K [mPa·s]	viscosity, 318.15 K [mPa·s]
100.5 kPa	–	–	–	–	1.337	1.105	0.921	0.771
101 kPa	793.6	785	776.31	767.44	–	–	–	–

CCO [ethanol]
[1]
Conditions	mass density, 288.15 K [kg/m3]	mass density, 298.15 K [kg/m3]	mass density, 308.15 K [kg/m3]	mass density, 318.15 K [kg/m3]	viscosity, 288.15 K [mPa·s]	viscosity, 298.15 K [mPa·s]	viscosity, 308.15 K [mPa·s]	viscosity, 318.15 K [mPa·s]
100.5 kPa	793.6	785	776.31	767.44	1.337	1.105	0.921	0.771
101 kPa	793.6	785	776.31	767.44	–	–	–	–

CCCCCCCC(=O)OCC [ethyl octanoate]
[1]
Conditions	mass density, 288.15 K [kg/m3]	mass density, 298.15 K [kg/m3]	mass density, 308.15 K [kg/m3]	mass density, 318.15 K [kg/m3]	viscosity, 288.15 K [mPa·s]	viscosity, 298.15 K [mPa·s]	viscosity, 308.15 K [mPa·s]	viscosity, 318.15 K [mPa·s]
100.5 kPa	–	–	–	–	1.697	1.411	1.193	1.027
101 kPa	870.79	862.15	853.52	844.87	–	–	–	–

CCOC(=O)c1ccccc1 [ethyl benzoate]
[1]
Conditions	mass density, 288.15 K [kg/m3]	mass density, 298.15 K [kg/m3]	mass density, 308.15 K [kg/m3]	mass density, 318.15 K [kg/m3]	viscosity, 288.15 K [mPa·s]	viscosity, 298.15 K [mPa·s]	viscosity, 308.15 K [mPa·s]	viscosity, 318.15 K [mPa·s]
100.5 kPa	–	–	–	–	2.444	1.971	1.624	1.368
101 kPa	1050.78	1041.42	1032.07	1022.73	–	–	–	–

CCOC(=O)Cc1ccccc1 [ethyl phenylacetate]
[1]
Conditions	mass density, 288.15 K [kg/m3]	mass density, 298.15 K [kg/m3]	mass density, 308.15 K [kg/m3]	mass density, 318.15 K [kg/m3]	viscosity, 288.15 K [mPa·s]	viscosity, 298.15 K [mPa·s]	viscosity, 308.15 K [mPa·s]	viscosity, 318.15 K [mPa·s]
100.5 kPa	–	–	–	–	3.002	2.384	1.948	1.624
101 kPa	1036.35	1026.96	1017.6	1008.26	–	–	–	–

CCO [ethanol] + CCCC(=O)OCCC(C)C
[2]
Conditions	mass density, 288.15 K [kg/m3]	mass density, 298.15 K [kg/m3]	mass density, 308.15 K [kg/m3]	mass density, 318.15 K [kg/m3]	viscosity, 288.15 K [mPa·s]	viscosity, 298.15 K [mPa·s]	viscosity, 308.15 K [mPa·s]	viscosity, 318.15 K [mPa·s]
100.5 kPa	–	–	–	–	1.337	1.105	0.921	0.771
101 kPa	793.6	785	776.31	767.44	–	–	–	–
